These results are taken from US10034886B2, “GLP-1 receptor modulators” (Celgene International II SÀRL, priority 2014, dated 2018).

pEC50: −log10 of the molar value. Where only a bound is given, the exact number is not on record here.

In the experiment the target is T1, GLP-1R (Homo sapiens, UniProt P43220).
T1 construct: host or cells: GLP-1R CRE-bla CHO-K1 cells
T1 sequence (P43220 24-463): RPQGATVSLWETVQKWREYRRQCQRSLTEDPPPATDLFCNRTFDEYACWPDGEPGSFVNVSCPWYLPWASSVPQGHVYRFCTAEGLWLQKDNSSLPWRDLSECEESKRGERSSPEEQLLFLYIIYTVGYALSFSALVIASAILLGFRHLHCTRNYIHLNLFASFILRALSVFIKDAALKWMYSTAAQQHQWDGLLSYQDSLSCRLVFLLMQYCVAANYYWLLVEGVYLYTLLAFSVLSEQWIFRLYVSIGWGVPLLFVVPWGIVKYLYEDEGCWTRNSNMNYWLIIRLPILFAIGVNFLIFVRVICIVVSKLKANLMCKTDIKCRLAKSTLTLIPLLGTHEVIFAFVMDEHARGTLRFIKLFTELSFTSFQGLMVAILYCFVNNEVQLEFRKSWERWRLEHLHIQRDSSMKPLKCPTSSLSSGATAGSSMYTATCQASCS
T1 sequence (P01275 100-127 partner limits assumed): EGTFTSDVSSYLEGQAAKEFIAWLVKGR
The experiment in a line: EC20 GLP-1(9-36) PAM cAMP assay: dose response of compound in the presence of fixed concentration of GLP-1(9-36). Format: cell-based. Particulars: dose response of compound in presence of fixed concentration of GLP-1(9-36), GLP-1R CRE-bla CHO-K1 cells, read-out: EC20 GLP-1(9-36) PAM EC50. In short, it runs like this: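 GLP-1R CRE-bla CHO-K1 cells treated 30 min at 37 °C with 12-point compound dose response plus fixed EC20 GLP-1(9-36), with IBMX, in HBSS/HEPES/0.1% BSA pH 7.4. Total cAMP measured by luminescent detection against standard curve; EC50 and Emax from non-linear regression.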
(In general: Cyclic AMP is a second messenger, typically raised through Gs and lowered through Gi signalling.)
`CCCCCCCOc1ccc(-c2cnc(-c3ccc(C[C@H](NC(=O)c4ccc(C(C)(C)C)s4)C(=O)NC4CC(N)C4)cc3)nc2)cc1` (some centres unmarked) [Compound 603]: the pEC50 is 5.60 to 6.10.
`CCCCCCCOc1ccc(-c2cnc(-c3ccc(C[C@H](NC(=O)c4ccc(C(C)(C)C)s4)C(=O)NC4(C(=O)O)CC4)cc3)nc2)cc1` [Compound 604]: the pEC50 was 5.60 to 6.10.
Under `CCCCCCCOc1ccc(-c2cnc(-c3ccc(C[C@H](NC(=O)c4ccc(C(C)(C)C)s4)C(=O)NCC4(C(=O)OC)CCNCC4)cc3)nc2)cc1` [Compound 605] stands over 6.10; under `CCCCCCCOc1ccc(-c2cnc(-c3ccc(C[C@H](NC(=O)c4ccc(C(C)(C)C)s4)C(=O)NCC4(C(=O)O)CCNCC4)cc3)nc2)cc1` [Compound 606], 5.60 to 6.10.
To `CCCCCCCOc1ccc(-c2cnc(-c3ccc(C[C@H](NC(=O)c4ccc(C(C)(C)C)s4)C(=O)N4CC(CC(=O)O)C4)cc3)nc2)cc1` [Compound 607] belongs 5.60 to 6.10; to `CCCCCCCOc1ccc(-c2cnc(-c3ccc(C[C@H](NC(=O)c4ccc(C(C)(C)C)s4)C(=O)NC4CCC(C(=O)O)C4)cc3)nc2)cc1` (some centres unmarked) [Compound 608], 5.60 to 6.10; to `CCCCCCCOc1ccc(-c2cnc(-c3ccc(C[C@H](NC(=O)c4ccc(C(C)(C)C)s4)C(=O)NC(CCCC)C(=O)O)cc3)nc2)cc1` (some centres unmarked) [Compound 609], over 6.10.
To `CCCCCCCOc1ccc(-c2cnc(-c3ccc(C[C@H](NC(=O)c4ccc(C(C)(C)C)s4)C(=O)N4CC=CC4C(=O)O)cc3)nc2)cc1` (some centres unmarked) [Compound 610] belongs over 6.10; to `CCCCCCCOc1ccc(-c2cnc(-c3ccc(C[C@H](NC(=O)c4ccc(C(C)(C)C)s4)C(=O)NC(Cc4ccccc4)C(=O)O)cc3)nc2)cc1` (some centres unmarked) [Compound 611], over 6.10; to `CCCCCCCOc1ccc(-c2cnc(-c3ccc(C[C@H](NC(=O)c4ccc(C(C)(C)C)s4)C(=O)N4C[C@H](O)C[C@H]4C(=O)O)cc3)nc2)cc1` [Compound 612], over 6.10.
With `CCCCCCCOc1ccc(-c2cnc(-c3ccc(C[C@H](NC(=O)c4ccc(C(C)(C)C)s4)C(=O)N4CCC(CC(=O)O)C4)cc3)nc2)cc1` (some centres unmarked) [Compound 613], the pEC50 was 5.60 to 6.10.
Regarding `CCCCCCCOc1ccc(-c2cnc(-c3ccc(C[C@H](NC(=O)c4ccc(C(C)(C)C)s4)C(=O)N4C(C(=O)O)CCC4C(=O)O)cc3)nc2)cc1` (some centres unmarked) [Compound 614], the pEC50 is 5.60 to 6.10.
Under `CCCCCCCOc1ccc(-c2cnc(-c3ccc(C[C@H](NC(=O)c4ccc(C(C)(C)C)s4)C(=O)NC(Cc4ccc(Cl)cc4)C(=O)O)cc3)nc2)cc1` (some centres unmarked) [Compound 615] stands 5.00 to 5.30.
On to `CCCCCCCOc1ccc(-c2cnc(-c3ccc(C[C@H](NC(=O)c4ccc(C(C)(C)C)s4)C(=O)N[C@@H](Cc4cccnc4)C(=O)O)cc3)nc2)cc1` [Compound 616], for which the negative-log EC50 (pEC50) is 5.60 to 6.10.
To `CCCCCCCOc1ccc(-c2cnc(-c3ccc(C[C@H](NC(=O)c4ccc(C(C)(C)C)s4)C(=O)N[C@@H](Cc4cccnc4)C(=O)O)cc3)nc2)cc1` [Compound 617] belongs over 6.10.
Under `CCCCCCCOc1ccc(-c2cnc(-c3ccc(C[C@H](NC(=O)c4ccc(C(C)(C)C)s4)C(=O)NC(C(=O)O)c4ccc(C(F)(F)F)cc4)cc3)nc2)cc1` (some centres unmarked) [Compound 618] stands 5.00 to 5.30; under `CCCCCCCOc1ccc(-c2cnc(-c3ccc(C[C@H](NC(=O)c4ccc(C(C)(C)C)s4)C(=O)NC(C(=O)O)c4ccc(OC)cc4)cc3)nc2)cc1` (some centres unmarked) [Compound 619], 5.60 to 6.10.
Regarding `CCCCCCCOc1ccc(-c2cnc(-c3ccc(C[C@H](NC(=O)c4ccc(C(C)(C)C)s4)C(=O)N[C@H](C(=O)O)C(C)(C)C)cc3)nc2)cc1` [Compound 620], the pEC50 is 5.00 to 5.30.
Turning to `CCCCCCCOc1ccc(-c2cnc(-c3ccc(C[C@H](NC(=O)c4ccc(C(C)(C)C)s4)C(=O)N4CCCC4CC(=O)O)cc3)nc2)cc1` (some centres unmarked) [Compound 621], the negative logarithm of the EC50 (pEC50) is 5.30 to 5.60.
To `CCCCCCCOc1ccc(-c2cnc(-c3ccc(C[C@H](NC(=O)c4ccc(C(C)(C)C)cc4)C(=O)N4C[C@H](N(C)C)C[C@H]4C(=O)O)cc3)nc2)cc1` [Compound 622] belongs 5.60 to 6.10; to `CCCCCCCOc1ccc(-c2cnc(-c3ccc(C[C@H](NC(=O)c4ccc(C(C)(C)C)cc4)C(=O)N4C[C@H](OC(C)(C)C)C[C@H]4C(=O)O)cc3)nc2)cc1` [Compound 623], 5.60 to 6.10; to `CCCCCCCOc1ccc(-c2cnc(-c3ccc(C[C@H](NC(=O)c4ccc(C(C)(C)C)cc4)C(=O)N4CC(OC)CC4C(=O)O)cc3)nc2)cc1` (some centres unmarked) [Compound 624], over 6.10.
Consider `CCCCCCCOc1ccc(-c2cnc(-c3ccc(CC(NC(=O)c4ccc(C(C)(C)C)s4)C(=O)N4CCC(C(=O)O)C4)cc3)nc2)cc1` (centres unmarked) [Compound 625], for which the negative-log EC50 (pEC50) is over 6.10.
For `CCCCCCCOc1ccc(-c2cnc(-c3ccc(C[C@H](NC(=O)c4ccc(C(C)(C)C)s4)C(=O)NC(Cc4c[nH]c5ncccc45)C(=O)O)cc3)nc2)cc1` (some centres unmarked) [Compound 626], the pEC50 is over 6.10.
`CCCCCCCOc1ccc(-c2cnc(-c3ccc(C[C@H](NC(=O)c4ccc(C(C)(C)C)s4)C(=O)N[C@@H](Cc4cscn4)C(=O)O)cc3)nc2)cc1` [Compound 627]: the pEC50 was over 6.10.
Under `CCCCCCCOc1ccc(-c2cnc(-c3ccc(C[C@H](NC(=O)c4ccc(C(C)(C)C)s4)C(=O)N[C@@H](Cc4ccccn4)C(=O)O)cc3)nc2)cc1` [Compound 628] stands 5.60 to 6.10; under `CCCCCCCOc1ccc(-c2cnc(-c3ccc(C[C@H](NC(=O)c4ccc(C(C)(C)C)s4)C(=O)NC(C(=O)O)c4cccc(OC)c4)cc3)nc2)cc1` (some centres unmarked) [Compound 629], 5.60 to 6.10; under `CCCCCCCOc1ccc(-c2cnc(-c3ccc(C[C@H](NC(=O)c4ccc(C(C)(C)C)s4)C(=O)N[C@H](CC(=O)O)C(=O)NC)cc3)nc2)cc1` [Compound 630], over 6.10.
With `CCCCCCCOc1ccc(-c2cnc(-c3ccc(C[C@H](NC(=O)c4ccc(C(C)(C)C)s4)C(=O)N4CC(C)C(C(=O)O)C4)cc3)nc2)cc1` (some centres unmarked) [Compound 631], the pEC50 is 5.60 to 6.10.
To `CCCCCCCOc1ccc(-c2cnc(-c3ccc(C[C@H](NC(=O)c4ccc(C(C)(C)C)cc4)C(=O)N4CC[C@H](C(=O)O)C4)cc3)nc2)cc1` [Compound 632] belongs 5.60 to 6.10; to `CCCCCCCOc1ccc(-c2cnc(-c3ccc(C[C@H](NC(=O)c4ccc(C(C)(C)C)s4)C(=O)NC(CCCC(=O)O)C(=O)O)cc3)nc2)cc1` (some centres unmarked) [Compound 633], 5.60 to 6.10; to `CCCCCCCOc1ccc(-c2cnc(-c3ccc(C[C@H](NC(=O)c4ccc(C(C)(C)C)s4)C(=O)NC(C(=O)O)C(O)c4ccccc4)cc3)nc2)cc1` (some centres unmarked) [Compound 634], over 6.10.
In the case of `CCCCCCCOc1ccc(-c2cnc(-c3ccc(C[C@H](NC(=O)c4ccc(C(C)(C)C)s4)C(=O)N4CC(C(=O)O)C4)cc3)nc2)cc1` [Compound 635, (S)-1-(2-(5-(tert-butyl)thiophene-2-carboxamido)-3-(4-(5-(4-(heptyloxy)phenyl)pyrimidin-2-yl)phenyl)propanoyl)azetidine-3-carboxylic acid], the negative logarithm of the EC50 (pEC50) is over 6.10.
Regarding `CCCCCCCOc1ccc(-c2cnc(-c3ccc(C[C@H](NC(=O)c4ccc(C(C)(C)C)s4)C(=O)NC(C(=O)O)C(C)c4ccccc4)cc3)nc2)cc1` (some centres unmarked) [Compound 636], the pEC50 was over 6.10.
Regarding `CCCCCCCOc1ccc(-c2cnc(-c3ccc(C[C@H](NC(=O)c4ccc(C(C)(C)C)s4)C(=O)N4CCC(C)(C(=O)O)C4)cc3)nc2)cc1` (some centres unmarked) [Compound 637], the pEC50 is 5.60 to 6.10.
Take `CCCCCCCOc1ccc(-c2cnc(-c3ccc(C[C@H](NC(=O)c4ccc(C(C)(C)C)s4)C(=O)N4CC(C(=O)O)C(C)(C)C4)cc3)nc2)cc1` (some centres unmarked) [Compound 638]: the pEC50 was 5.30 to 5.60.
For `CCCCCCCOc1ccc(-c2cnc(-c3ccc(C[C@H](NC(=O)c4ccc(C(C)(C)C)s4)C(=O)N[C@@H](Cn4cncn4)C(=O)O)cc3)nc2)cc1` [Compound 639], the pEC50 was over 6.10.
To `CCCCCCCOc1ccc(-c2cnc(-c3ccc(C[C@H](NC(=O)c4ccc(C(C)(C)C)s4)C(=O)N4C[C@@H](C#N)C[C@H]4C(=O)O)cc3)nc2)cc1` [Compound 640] belongs over 6.10.
Under `CCCCCCCOc1ccc(-c2cnc(-c3ccc(C[C@H](NC(=O)c4ccc(C(C)(C)C)s4)C(=O)N4C[C@H](C#N)C[C@H]4C(=O)O)cc3)nc2)cc1` [Compound 641] stands over 6.10; under `CCCCCCCOc1ccc(-c2cnc(-c3ccc(C[C@H](NC(=O)c4ccc(C(C)(C)C)s4)C(=O)N[C@H](C(=O)O)[C@H](O)c4ccccc4)cc3)nc2)cc1` [Compound 642], over 6.10.
Consider `CCCCCCCOc1ccc(-c2cnc(-c3ccc(C[C@H](NC(=O)c4ccc(C(C)(C)C)s4)C(=O)NC(C(=O)O)C(O)c4ccc(OC)cc4)cc3)nc2)cc1` (some centres unmarked) [Compound 644], for which the pEC50 was over 6.10.
Consider `CCCCCCCOc1ccc(-c2cnc(-c3ccc(C[C@H](NC(=O)c4ccc(C(C)(C)C)s4)C(=O)N[C@H](C(=O)O)[C@@H](C)O)cc3)nc2)cc1` [Compound 645], for which the pEC50 is over 6.10.
Consider `CCCCCCCOc1ccc(-c2cnc(-c3ccc(C[C@H](NC(=O)c4ccc(C(C)(C)C)s4)C(=O)N[C@H](C(=O)O)[C@H](C)O)cc3)nc2)cc1` [Compound 646], for which the pEC50 is over 6.10.
For the molecule `CCCCCCCOc1ccc(-c2cnc(-c3ccc(C[C@H](NC(=O)c4ccc(C(C)(C)C)s4)C(=O)N[C@H](Cc4ccccc4)C(=O)O)cc3)nc2)cc1` [Compound 647], the pEC50 is over 6.10.
To `CCCCCCCOc1ccc(-c2cnc(-c3ccc(C[C@H](NC(=O)c4ccc(C(C)(C)C)s4)C(=O)N[C@@H](Cc4ccccc4)C(=O)O)cc3)nc2)cc1` [Compound 648] belongs 5.60 to 6.10.
For `CCCCCCCOc1ccc(-c2cnc(-c3ccc(C[C@H](NC(=O)c4ccc(C(C)(C)C)s4)C(=O)N4CC(C(=O)NS(=O)(=O)CC(=O)O)C4)cc3)nc2)cc1` [Compound 649], the pEC50 is 5.60 to 6.10.
Consider `CCCCCCCOc1ccc(-c2cnc(-c3ccc(C[C@H](NC(=O)c4ccc(C(C)(C)C)s4)C(=O)N4CC(C(=O)NS(C)(=O)=O)C4)cc3)nc2)cc1` [Compound 650], for which the pEC50 is over 6.10.

One may read the pEC50 as the EC50 on a negative log10 scale, so that one unit is a factor of ten.
